# Source: patent US7858786B2, “Pyrimidines and pyrazines useful as modulators of ion channels” (Vertex Pharmaceuticals Incoropated, priority 2005, dated 2010)
# Biological target: T1, NaV1.8 (Homo sapiens, UniProt Q9Y5Y9)
# Assay: Activity against NaV 1.8 channel (NaV inhibition assay)
# Type: cell-based
# Settings: not given
# Protocol: Compounds of the invention are useful as antagonists of voltage-gated sodium ion channels. Antagonist properties of test compounds were assessed as follows. Cells expressing the NaV of interest were placed into microtiter plates. After an incubation period, the cells were stained with fluorescent dyes sensitive to the transmembrane potential. The test compounds were added to the microtiter plate. The cells were stimulated with either a chemical or electrical means to evoke a NaV dependent membrane potential change from unblocked channels, which was detected and measured with trans-membrane potential-sensitive dyes. Antagonists were detected as a decreased membrane potential response to the stimulus. The optical membrane potential assay utilized voltage-sensitive FRET sensors described by Gonzalez and Tsien (See, Gonzalez, J. E. and R. Y. Tsien (1995) “Voltage sensing by fluorescence resonance energy transfer in single cells” Biophys J 69(4):1272-80, and Gonzalez, J. E. and R. Y. Tsien (1997) “Improved indicators of cell membrane potential that use fluorescence resonance energy transfer” Chem Biol 4(4):269-77) in combination with instrumentation for measuring fluorescence changes such as the Voltage/Ion Probe Reader (VIPRO®) (See, Gonzalez, J. E., K. Oades, et al. (1999) “Cell-based assays and instrumentation for screening ion-channel targets” Drug Discov Today 4(9):431-439).
# 24 hours before the assay on VIPR, CHO cells endogenously expressing a NaV1.2 type voltage-gated NaV are seeded in 96-well poly-lysine coated plates at 60,000 cells per well. Other subtypes are performed in an analogous mode in a cell line expressing the NaV of interest.
# The following is an example of how NaV1.3 inhibition activity is measured using the optical membrane potential method #2. Other subtypes are performed in an analogous mode in a cell line expressing the NaV of interest.
# HEK293 cells stably expressing NaV1.3 are plated into 96-well microtiter plates. After an appropriate incubation period, the cells are stained with the voltage sensitive dyes CC2-DMPE/DiSBAC2(3) as follows.
# Patch clamp electrophysiology was used to assess the efficacy and selectivity of sodium channel blockers in dorsal root ganglion neurons. Rat neurons were isolated from the dorsal root ganglions and maintained in culture for 2 to 10 days in the presence of NGF (50 ng/ml) (culture media consisted of NeurobasalA supplemented with B27, glutamine and antibiotics). Small diameter neurons (nociceptors, 8-12 μm in diameter) have been visually identified and probed with fine tip glass electrodes connected to an amplifier (Axon Instruments). The “voltage clamp” mode has been used to assess the compound's IC50 holding the cells at −60 mV. In addition, the “current clamp” mode has been employed to test the efficacy of the compounds in blocking action potential generation in response to current injections. The results of these experiments have contributed to the definition of the efficacy profile of the compounds.
# TTX-resistant sodium currents were recorded from DRG somata using the whole-cell variation of the patch clamp technique. Recordings were made at room temperature (˜22° C.) with thick walled borosilicate glass electrodes (WPI; resistance 3-4 MΩ) using an Axopatch 200B amplifier (Axon Instruments). After establishing the whole-cell configuration, approximately 15 minutes were allowed for the pipette solution to equilibrate within the cell before beginning recording. Currents were lowpass filtered between 2-5 kHz and digitally sampled at 10 kHz. Series resistance was compensated 60-70% and was monitored continuously throughout the experiment. The liquid junction potential (−7 mV) between the intracellular pipette solution and the external recording solution was not accounted for in the data analysis. Test solutions were applied to the cells with a gravity driven fast perfusion system (SF-77; Warner Instruments). […]
# T1 sequence (Q9Y5Y9 whole entry, looked up): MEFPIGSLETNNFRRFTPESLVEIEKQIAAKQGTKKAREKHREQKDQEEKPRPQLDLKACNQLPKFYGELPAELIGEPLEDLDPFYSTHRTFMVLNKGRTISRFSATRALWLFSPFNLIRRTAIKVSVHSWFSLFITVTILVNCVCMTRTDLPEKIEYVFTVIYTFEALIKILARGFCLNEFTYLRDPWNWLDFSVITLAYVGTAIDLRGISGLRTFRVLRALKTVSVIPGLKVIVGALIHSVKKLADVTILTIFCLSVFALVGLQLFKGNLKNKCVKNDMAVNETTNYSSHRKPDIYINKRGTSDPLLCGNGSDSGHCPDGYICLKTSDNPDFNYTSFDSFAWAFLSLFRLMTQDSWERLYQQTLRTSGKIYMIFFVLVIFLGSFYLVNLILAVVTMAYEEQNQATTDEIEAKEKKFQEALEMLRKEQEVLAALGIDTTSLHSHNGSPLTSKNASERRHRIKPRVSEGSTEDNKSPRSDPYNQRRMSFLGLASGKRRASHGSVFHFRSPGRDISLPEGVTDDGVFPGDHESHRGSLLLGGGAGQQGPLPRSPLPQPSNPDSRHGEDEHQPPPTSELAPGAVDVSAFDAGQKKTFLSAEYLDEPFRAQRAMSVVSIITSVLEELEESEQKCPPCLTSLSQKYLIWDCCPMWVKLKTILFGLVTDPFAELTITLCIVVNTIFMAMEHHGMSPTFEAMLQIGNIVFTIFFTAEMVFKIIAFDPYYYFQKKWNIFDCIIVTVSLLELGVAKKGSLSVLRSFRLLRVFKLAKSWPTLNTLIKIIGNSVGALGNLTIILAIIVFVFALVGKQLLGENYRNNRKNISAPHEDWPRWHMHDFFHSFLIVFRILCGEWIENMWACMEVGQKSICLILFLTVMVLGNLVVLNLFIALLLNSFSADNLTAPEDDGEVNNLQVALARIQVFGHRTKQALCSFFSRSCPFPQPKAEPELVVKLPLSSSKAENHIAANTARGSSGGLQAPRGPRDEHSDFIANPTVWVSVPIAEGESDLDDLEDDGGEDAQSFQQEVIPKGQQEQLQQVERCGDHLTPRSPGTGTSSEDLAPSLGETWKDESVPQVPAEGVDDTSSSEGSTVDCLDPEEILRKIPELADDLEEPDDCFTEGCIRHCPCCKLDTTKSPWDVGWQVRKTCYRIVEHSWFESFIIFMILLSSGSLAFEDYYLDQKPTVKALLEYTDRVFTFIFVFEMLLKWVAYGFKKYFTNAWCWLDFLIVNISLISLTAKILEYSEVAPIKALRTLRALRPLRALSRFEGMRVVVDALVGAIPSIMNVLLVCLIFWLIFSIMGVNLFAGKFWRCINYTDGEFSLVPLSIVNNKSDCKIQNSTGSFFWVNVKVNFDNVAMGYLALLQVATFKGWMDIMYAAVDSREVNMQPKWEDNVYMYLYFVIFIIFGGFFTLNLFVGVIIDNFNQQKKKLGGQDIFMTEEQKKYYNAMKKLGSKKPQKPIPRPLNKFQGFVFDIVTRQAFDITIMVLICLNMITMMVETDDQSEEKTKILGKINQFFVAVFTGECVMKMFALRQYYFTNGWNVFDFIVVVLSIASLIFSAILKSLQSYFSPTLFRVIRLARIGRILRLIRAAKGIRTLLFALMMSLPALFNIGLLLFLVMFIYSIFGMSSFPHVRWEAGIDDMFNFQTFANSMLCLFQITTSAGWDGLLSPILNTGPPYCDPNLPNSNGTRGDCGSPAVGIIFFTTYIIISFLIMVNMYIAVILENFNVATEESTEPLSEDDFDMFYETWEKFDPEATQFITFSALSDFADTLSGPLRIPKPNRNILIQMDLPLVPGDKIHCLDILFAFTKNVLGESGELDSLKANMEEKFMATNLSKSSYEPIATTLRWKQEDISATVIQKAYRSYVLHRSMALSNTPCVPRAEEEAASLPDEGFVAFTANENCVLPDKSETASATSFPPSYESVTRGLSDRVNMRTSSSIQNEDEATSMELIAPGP
row,Structure (SMILES),IC50 [µM]
1,"CC(C)COC(=O)NC1CCN(c2nccc(-c3ccccc3O)n2)CC1 [Compound 1, [1-[4-(2-hydroxyphenyl)pyrimidin-2-yl]-4-piperidyl]aminoformic acid isobutyl ester]",> 15
2,"CC(C)COC(=O)N1CCN(c2cncc(-c3ccccc3O)n2)CC1 [Compound 33, 4-[6-(2-hydroxyphenyl)pyrazin-2-yl]piperazine-1-carboxylic acid isobutyl ester]",< 10
3,"CC(C)COC(=O)N[C@H]1CCN(c2cncc(-c3ccccc3C(F)F)n2)C1 [Compound 36, [1-[6-[2-(difluoromethyl)phenyl]pyrazin-2-yl]pyrrolidin-3-yl]aminoformic acid isobutyl ester]",< 10
4,"COCCOC(=O)NC1CCN(c2cncc(-c3ccccc3F)n2)CC1 [Compound 9, [1-[6-(2-fluorophenyl)pyrazin-2-yl]-4-piperidyl]aminoformic acid 2-methoxyethyl ester]",< 10
5,"CC(C)C[C@@H](O)C(=O)N1CCN(c2ccnc(-c3ccccc3O)n2)CC1 [Compound 12, 2-hydroxy-1-[4-[2-(2-hydroxyphenyl)pyrimidin-4-yl]piperazin-1-yl]-4-methyl-pentan-1-one]",10 to 15
6,"O=C(NC1CCN(c2ccnc(-c3ccccc3O)n2)CC1)[C@H]1CCCO1 [Compound 29, N-[1-[2-(2-hydroxyphenyl)pyrimidin-4-yl]-4-piperidyl]tetrahydrofuran-2-carboxamide]",> 15
7,"CC(C)COC(=O)N1CCN(c2cncc(-c3ccccc3C(F)F)n2)CC1 [Compound 15, 4-[6-[2-(difluoromethyl)phenyl]pyrazin-2-yl]piperazine-1-carboxylic acid isobutyl ester]",10 to 15
8,"CC(C)(C)OC(=O)NC1CCN(c2cncc(-c3ccccc3F)n2)CC1 [Compound 3, [1-[6-(2-fluorophenyl)pyrazin-2-yl]-4-piperidyl]aminoformic acid tert-butyl ester]",< 10
9,"CC(C)COC(=O)NC1CCN(c2ccnc(-c3ccccc3O)n2)CC1 [Compound 35, [1-[2-(2-hydroxyphenyl)pyrimidin-4-yl]-4-piperidyl]aminoformic acid isobutyl ester]",10 to 15
10,"O=C(NC1CCN(c2ccnc(-c3ccccc3F)n2)CC1)[C@H]1CCCO1 [Compound 2, N-[1-[2-(2-fluorophenyl)pyrimidin-4-yl]-4-piperidyl]tetrahydrofuran-2-carboxamide]",> 15
11,"CC(C)C[C@@H](O)C(=O)N1CCN(c2cc(-c3ccccc3O)ncn2)CC1 [Compound 26, 2-hydroxy-1-[4-[6-(2-hydroxyphenyl)pyrimidin-4-yl]piperazin-1-yl]-4-methyl-pentan-1-one]",> 15
12,"CC(C)(C)OC(=O)N[C@@H]1CCN(c2cncc(-c3ccccc3O)n2)C1 [Compound 40, [1-[6-(2-hydroxyphenyl)pyrazin-2-yl]pyrrolidin-3-yl]aminoformic acid tert-butyl ester]",> 15
13,"CC(C)C[C@@H](O)C(=O)N1CCN(c2cc(-c3ccccc3C(F)F)ncn2)CC1 [Compound 49, 1-[4-[6-[2-(difluoromethyl)phenyl]pyrimidin-4-yl]piperazin-1-yl]-2-hydroxy-4-methyl-pentan-1-one]",> 15
14,"CC(C)C(=O)N[C@@H]1CCN(c2cncc(-c3ccccc3F)n2)C1 [Compound 7, N-[1-[6-(2-fluorophenyl)pyrazin-2-yl]pyrrolidin-3-yl]-2-methyl-propanamide]",> 15

# Biological target: T1, NaV1.8
# Assay: not given
# Settings: read-out: TTX IC50; cited from earlier work
row,Structure (SMILES),IC50 [µM]
1,"NC1=N[C@H](O)[C@H]2[C@H]3O[C@]4(O)O[C@@H]([C@@H](O)[C@@]2(N1)[C@@H]4O)[C@]3(O)CO [TTX, tetrodotoxin]",> 50

# Tested on: neuropathic pain
# Assay: not given
# Settings: modest efficacy; cited from earlier work
row,Structure (SMILES),patients in which it works [%]
1,NCC1(CC(=O)O)CCCCC1 [Gabapentin],60
